pIC50: −log10 of the molar value.

The subject of assay [1] is NCI-H1993. The assay can be described thus: Growth inhibition of wild type human NCI-H1993 cells incubated for 3 days by cell titer-glo luminescent cell viability assay. The settings on record: NCI-H1993, 72 h. It is filed as functional.
The subject of assay [2] is NCI-H1993. The assay can be described thus: Growth inhibition of CRISPR/Cas9 modified human NCI-H1993 cells harboring cMET D1228V mutant incubated for 3 days by cell titer-glo luminescent cell viability assay. It is filed as functional. The note with it: NCI-H1993, 72 h.
Assay [3] concerns the target T1, Hepatocyte growth factor receptor (Homo sapiens, UniProt P08581). The assay can be described thus: Inhibition of c-Met phosphorylation at Tyr 1234/Tyr1235 residues in human NCI-H1993 cells incubated for 4 hrs by HTRF assay. Format: cell-based. Background: TR-FRET usually uses a lanthanide donor and a delayed reading to cut background.
Assay [4] deals with T2, Hepatocyte growth factor receptor (Homo sapiens, UniProt P08581, D1228V). Description: Inhibition of c-MET D1228V mutant phosphorylation at Tyr1234/Tyr1235 residues in CRISPR/Cas9 modified human NCI-H1993 cells incubated for 4 hrs by HTRF assay. It is filed as cell-based.
In assay [5] the target is T1, Hepatocyte growth factor receptor. The assay can be described thus: Inhibition of wild type N-terminal NH-tagged and avi-tagged dephosphorylated c-MET (956 to 1390 residues) (unknown origin) expressed in sf21 cells using poly (Glu,Tyr) as substrate measured after 60 mins by ADP-Glo kinase assay. For orientation: ADP-Glo first removes unused ATP, then detects ADP through luciferase.

In assay [6] the target is T2, Hepatocyte growth factor receptor. Description: Inhibition of N-terminal NH-tagged and avi-tagged dephosphorylated c-MET D1228V mutant (956 to 1390 residues) (unknown origin) expressed in sf21 cells using poly (Glu,Tyr) as substrate measured after 60 mins by ADP-Glo kinase assay.
Assay [7] has as its system NCI-H1993. The assay can be described thus: Resistance index, ratio of GI50 for CRISPR/Cas9 modified human NCI-H1993 cells harboring cMET D1228V mutant to GI50 for wild type human NCI-H1993 cells by cell-titer glo luminescent cell viability assay. It is filed as functional.

For orientation: GI50 means the concentration that inhibits growth by half. Low values mean more potent growth inhibition, high ones less potent growth inhibition. As a reminder, the pIC50 is the IC50 on a negative log10 scale, so that one unit is a factor of ten. Consider `C[C@@H](c1ccc2nccn2c1)n1nnc2ncc(-c3cnn(C)c3)nc21` [SAVOLITINIB], for which the concentration for 50% growth inhibition (GI50) was 0.00933 µM with NCI-H1993 [1] and 8.32 µM in the assay on NCI-H1993 [2]. Also, the negative-log IC50 (pIC50) was 8.70 in assay [3], less than 4.50 in assay [4], more than 8.60 in assay [5] and 6.17 in assay [6]. Also, the RatioGI50 in the assay on NCI-H1993 [7] was more than 800.
Turning to `COc1cc2c(Oc3ccc(NC(=O)C4(C(=O)Nc5ccc(F)cc5)CC4)cc3F)ccnc2cc1OCCCN1CCOCC1` [FORETINIB], the figures for the GI50 in the assay with NCI-H1993 [1] and in the assay with NCI-H1993 [2] were 0.0617 µM and 0.0525 µM, respectively.
Consider `CCOc1ccn(-c2ccc(F)cc2)c(=O)c1C(=O)Nc1ccc(Oc2ccnc(N)c2Cl)c(F)c1` [BMS-777607], for which the pIC50 in assay [3] was 6.67 to 7.91; in assay [4] it was 6.67 to 7.91; in assay [5], more than 8.60; in assay [6], more than 8.60.

For the origin of these results see ChEMBL document CHEMBL4364342, “Structural and Molecular Insight into Resistance Mechanisms of First Generation cMET Inhibitors” (ACS Med Chem Lett, 2019).
